Assay results from patent publication US8431565B2 (priority 2007, dated 2013).
pEC50: −log10 of the molar value.

These compounds were tested against human CB1 receptor (hCB1) (Homo sapiens, UniProt P21554).
Sequence of human CB1 receptor (hCB1) (P21554 whole entry): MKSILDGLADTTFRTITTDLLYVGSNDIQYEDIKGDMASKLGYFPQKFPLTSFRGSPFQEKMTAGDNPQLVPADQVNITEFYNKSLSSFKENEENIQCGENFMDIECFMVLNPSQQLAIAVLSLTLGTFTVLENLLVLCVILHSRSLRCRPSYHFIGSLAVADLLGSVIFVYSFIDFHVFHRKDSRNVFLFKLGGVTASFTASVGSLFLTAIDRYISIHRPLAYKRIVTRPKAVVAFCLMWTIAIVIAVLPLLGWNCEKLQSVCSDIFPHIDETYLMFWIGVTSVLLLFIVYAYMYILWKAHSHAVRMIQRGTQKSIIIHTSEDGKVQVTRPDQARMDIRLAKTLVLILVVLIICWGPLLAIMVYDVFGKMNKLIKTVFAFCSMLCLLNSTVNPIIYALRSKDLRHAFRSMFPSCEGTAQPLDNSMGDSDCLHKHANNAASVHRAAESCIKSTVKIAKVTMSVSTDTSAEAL
Assay type: cell-based
`CN1CCCn2c(-c3cc(Cl)c(F)cc3F)nc(C(=O)NC3(C(=O)N4CC(F)(F)C4)CC3)c2C1` [Compound 873, 3-(5-chloro-2,4-difluorophenyl)-N-(1-(3,3-difluoroazetidine-1-carbonyl)cyclopropyl)-8-methyl-6,7,8,9-tetrahydro-5H-imidazo[1,5-a][1,4]diazepine-1-carboxamide] showed a pEC50 of less than 5.00. With `CC1CCN(CC(C)(C)NC(=O)c2nc(-c3cc(Cl)c(F)cc3F)n3c2CN(C)CCC3)CC1` [Compound 880, 3-(5-chloro-2,4-difluorophenyl)-8-methyl-N-(2-methyl-1-(4-methylpiperidin-1-yl)propan-2-yl)-6,7,8,9-tetrahydro-5H-imidazo[1,5-a][1,4]diazepine-1-carboxamide] the pEC50 was less than 5.00. Work on `CNC(=O)[C@@H](NC(=O)c1nc(C2CCN(C(=O)C(C)C)CC2)n2c1CN(C)CCC2)C(C)(C)C` [Compound 728, (S)-N-(3,3-dimethyl-1-(methylamino)-1-oxobutan-2-yl)-3-(1-isobutyrylpiperidin-4-yl)-8-methyl-6,7,8,9-tetrahydro-5H-imidazo[1,5-a][1,4]diazepine-1-carboxamide] yielded a pEC50 of less than 5.00. Work on `CN1CCCn2c(-c3cc(Cl)ccc3F)nc(C(=O)N[C@H](C(=O)N[C@H]3CN4CCC3CC4)C(C)(C)C)c2C1` [Compound 744, 3-(5-chloro-2-fluorophenyl)-N-((S)-3,3-dimethyl-1-oxo-1-((R)-quinuclidin-3-ylamino)butan-2-yl)-8-methyl-6,7,8,9-tetrahydro-5H-imidazo[1,5-a][1,4]diazepine-1-carboxamide] yielded a pEC50 of less than 5.00. Work on `CNC(=O)[C@@H](NC(=O)c1nc(-c2cnn(S(=O)(=O)c3ccccc3)c2)n2c1CN(C)CCC2)C(C)(C)C` [Compound 776, (S)-N-(3,3-dimethyl-1-(methylamino)-1-oxobutan-2-yl)-8-methyl-3-(1-(phenylsulfonyl)-1H-pyrazol-4-yl)-6,7,8,9-tetrahydro-5H-imidazo[1,5-a][1,4]diazepine-1-carboxamide] yielded a pEC50 of less than 5.00. `CNC(=O)[C@@H]1CCN(C(=O)c2nc(-c3cc(Cl)c(F)cc3F)n3c2CN(C)CCC3)C1` [Compound 808, (R)-1-(3-(5-chloro-2,4-difluorophenyl)-8-methyl-6,7,8,9-tetrahydro-5H-imidazo[1,5-a][1,4]diazepine-1-carbonyl)-N-methylpyrrolidine-3-carboxamide] showed a pEC50 of less than 5.00. For `CNC(=O)[C@@H](NC(=O)c1nc(-c2ccc(OC(C)C)cc2)n2c1CN(C)CCC2)C(C)(C)C` [Compound 649, (S)-N-(3,3-dimethyl-1-(methylamino)-1-oxobutan-2-yl)-3-(4-isopropoxyphenyl)-8-methyl-6,7,8,9-tetrahydro-5H-imidazo[1,5-a][1,4]diazepine-1-carboxamide], the pEC50 was less than 5.00. With `CN1CCCn2c(-c3cc(Cl)c(F)cc3F)nc(C(=O)N3CCC(F)(F)C3)c2C1` [Compound 824, (3-(5-chloro-2,4-difluorophenyl)-8-methyl-6,7,8,9-tetrahydro-5H-imidazo[1,5-a][1,4]diazepin-1-yl)(3,3-difluoropyrrolidin-1-yl)methanone] the pEC50 was less than 5.00. In the case of `CNC(=O)C1(NC(=O)c2nc(-c3cc(Cl)c(F)cc3F)n3c2CN(C)CCC3)CC1` [Compound 905, 3-(5-chloro-2,4-difluorophenyl)-8-methyl-N-(1-(methylcarbamoyl)cyclopropyl)-6,7,8,9-tetrahydro-5H-imidazo[1,5-a][1,4]diazepine-1-carboxamide], the pEC50 was less than 5.00. In the case of `CN1CCCn2c(-c3cc(Cl)ccc3F)nc(C(=O)N[C@H](C(=O)N[C@H]3CCC[C@H]3O)C(C)(C)C)c2C1` [Compound 840, 3-(5-chloro-2-fluorophenyl)-N-((S)-1-((1S,2R)-2-hydroxycyclopentylamino)-3,3-dimethyl-1-oxobutan-2-yl)-8-methyl-6,7,8,9-tetrahydro-5H-imidazo[1,5-a][1,4]diazepine-1-carboxamide], the pEC50 was less than 5.00. `CN1CCCn2c(-c3cc(Cl)ccc3F)nc(C(=O)N[C@H](CN3CCCC3=O)C(C)(C)C)c2C1` [Compound 769, (S)-3-(5-chloro-2-fluorophenyl)-N-(3,3-dimethyl-1-(2-oxopyrrolidin-1-yl)butan-2-yl)-8-methyl-6,7,8,9-tetrahydro-5H-imidazo[1,5-a][1,4]diazepine-1-carboxamide] showed a pEC50 of less than 5.00. Compound `CNC(=O)[C@@H](NC(=O)c1nc(-c2ccc(C(F)(F)F)cc2C(F)(F)F)n2c1CN(C)CCC2)C(C)(C)C` [Compound 617, (S)-3-(2,4-bis(trifluoromethyl)phenyl)-N-(3,3-dimethyl-1-(methylamino)-1-oxobutan-2-yl)-8-methyl-6,7,8,9-tetrahydro-5H-imidazo[1,5-a][1,4]diazepine-1-carboxamide] has a pEC50 of less than 5.00. `CN1CCCn2c(-c3cc(C(F)(F)F)ccc3F)nc(C(=O)N[C@H](C(=O)NCCF)C(C)(C)C)c2C1` [Compound 810, (S)-3-(2-fluoro-5-(trifluoromethyl)phenyl)-N-(1-(2-fluoroethylamino)-3,3-dimethyl-1-oxobutan-2-yl)-8-methyl-6,7,8,9-tetrahydro-5H-imidazo[1,5-a][1,4]diazepine-1-carboxamide] was tested, and the pEC50 was less than 5.00. `CNC(=O)[C@@H](NC(=O)c1nc(-c2ccc(=O)[nH]c2)n2c1CN(C)CCC2)C(C)(C)C` [Compound 645, (S)-N-(3,3-dimethyl-1-(methylamino)-1-oxobutan-2-yl)-8-methyl-3-(6-oxo-1,6-dihydropyridin-3-yl)-6,7,8,9-tetrahydro-5H-imidazo[1,5-a][1,4]diazepine-1-carboxamide] showed a pEC50 of less than 5.00. In the case of `CN1CCCn2c(-c3cc(Cl)ccc3F)nc(C(=O)N[C@H](CN)C(C)(C)C)c2C1` [Compound 768, (S)-N-(1-amino-3,3-dimethylbutan-2-yl)-3-(5-chloro-2-fluorophenyl)-8-methyl-6,7,8,9-tetrahydro-5H-imidazol[1,5-a][1,4]diazepine-1-carboxamide], the pEC50 was less than 5.00. Compound `CNC(=O)[C@@H](NC(=O)c1nc(C2CCN(C(=O)c3ccccc3)CC2)n2c1CN(C)CCC2)C(C)(C)C` [Compound 726, (S)-3-(1-benzoylpiperidin-4-yl)-N-(3,3-dimethyl-1-(methylamino)-1-oxobutan-2-yl)-8-methyl-6,7,8,9-tetrahydro-5H-imidazo[1,5-a][1,4]diazepine-1-carboxamide] has a pEC50 of less than 5.00. With `CNC(=O)[C@@H](NC(=O)c1nc(-c2cc(F)c(F)cc2F)n2c1CN(c1cncc(Cl)n1)CCC2)C(C)(C)C` [Compound 718, (S)-8-(6-chloropyrazin-2-yl)-N-(3,3-dimethyl-1-(methylamino)-1-oxobutan-2-yl)-3-(2,4,5-trifluorophenyl)-6,7,8,9-tetrahydro-5H-imidazo[1,5-a][1,4]diazepine-1-carboxamide] the pEC50 was less than 5.00. Work on `CN1CCCn2c(-c3cc(F)c(F)cc3F)nc(C(=O)N3CC(O)C3)c2C1` [Compound 856, (3-hydroxyazetidin-1-yl)(8-methyl-3-(2,4,5-trifluorophenyl)-6,7,8,9-tetrahydro-5H-imidazo[1,5-a][1,4]diazepin-1-yl)methanone] yielded a pEC50 of less than 5.00. `CNC(=O)[C@@H](NC(=O)c1nc(C2CCN(S(=O)(=O)C(C)C)CC2)n2c1CN(C)CCC2)C(C)(C)C` [Compound 775, (S)-N-(3,3-dimethyl-1-(methylamino)-1-oxobutan-2-yl)-3-(1-(isopropylsulfonyl)piperidin-4-yl)-8-methyl-6,7,8,9-tetrahydro-5H-imidazo[1,5-a][1,4]diazepine-1-carboxamide] was tested, and the pEC50 was less than 5.00. `CNC(=O)[C@@H](NC(=O)c1nc(C2=CCCCO2)n2c1CN(C)CCC2)C(C)(C)C` [Compound 452, (S)-3-(3,4-dihydro-2H-pyran-6-yl)-N-(3,3-dimethyl-1-(methylamino)-1-oxobutan-2-yl)-8-methyl-6,7,8,9-tetrahydro-5H-imidazo[1,5-a][1,4]diazepine-1-carboxamide] was tested, and the pEC50 was less than 5.00. Compound `CNC(=O)[C@@H](NC(=O)c1nc(-c2cccc(F)c2OC)n2c1CN(C)CCC2)C(C)(C)C` [Compound 657, (S)-N-(3,3-dimethyl-1-(methylamino)-1-oxobutan-2-yl)-3-(3-fluoro-2-methoxyphenyl)-8-methyl-6,7,8,9-tetrahydro-5H-imidazo[1,5-a][1,4]diazepine-1-carboxamide] has a pEC50 of less than 5.00. `CNC(=O)[C@H]1CCN(C(=O)c2nc(-c3cc(Cl)c(F)cc3F)n3c2CN(C)CCC3)C1` [Compound 809, (S)-1-(3-(5-chloro-2,4-difluorophenyl)-8-methyl-6,7,8,9-tetrahydro-5H-imidazo[1,5-a][1,4]diazepine-1-carbonyl)-N-methylpyrrolidine-3-carboxamide] showed a pEC50 of less than 5.00. `CNC(=O)[C@H](CC(C)(C)C)NC(=O)c1nc(-c2ccc(F)c(Cl)c2)n2c1CN(C)CCC2` [Compound 546, (S)-3-(3-chloro-4-fluorophenyl)-N-(4,4-dimethyl-1-(methylamino)-1-oxopentan-2-yl)-8-methyl-6,7,8,9-tetrahydro-5-imidazo[1,5-a][1,4]diazepine-1-carboxamide] was tested, and the pEC50 was less than 5.00. `CNC(=O)[C@@H](NC(=O)c1nc(-c2ccnc(C)c2)n2c1CN(C)CCC2)C(C)(C)C` [Compound 638, (S)-N-(3,3-dimethyl-1-(methylamino)-1-oxobutan-2-yl)-8-methyl-3-(2-methylpyridin-4-yl)-6,7,8,9-tetrahydro-5H-imidazo[1,5-a][1,4]diazepine-1-carboxamide] was tested, and the pEC50 was less than 5.00. `CN1CCCn2c(-c3cc(F)c(F)cc3F)nc(C(=O)N3CCC4(CCNC4=O)CC3)c2C1` [Compound 787, 8-(8-methyl-3-(2,4,5-trifluorophenyl)-6,7,8,9-tetrahydro-5H-imidazo[1,5-a][1,4]diazepine-1-carbonyl)-2,8-diazaspiro[4.5]decan-1-one] gave a pEC50 of less than 5.00. `CNC(=O)[C@@H](NC(=O)c1nc(-c2cccnc2Cl)n2c1CN(C)CCC2)C(C)(C)C` [Compound 628, (S)-3-(2-chloropyridin-3-yl)-N-(3,3-dimethyl-1-(methylamino)-1-oxobutan-2-yl)-8-methyl-6,7,8,9-tetrahydro-5H-imidazo[1,5-a][1,4]diazepine-1-carboxamide] gave a pEC50 of less than 5.00. Compound `CN1CCCn2c(-c3cc(Cl)ccc3F)nc(C(=O)NC(CN3CCCC3)C(C)(C)C)c2C1` (stereo not drawn) [Compound 720, 3-(5-chloro-2-fluorophenyl)-N-(3,3-dimethyl-1-(pyrrolidin-1-yl)butan-2-yl)-8-methyl-6,7,8,9-tetrahydro-5H-imidazo[1,5-a][1,4]diazepine-1-carboxamide] has a pEC50 of less than 5.00.
